From ChEMBL document CHEMBL5038634, “Virtual Screening Directly Identifies New Fragment-Sized Inhibitors of Carboxylesterase Notum with Nanomolar Activity” (J Med Chem, 2022)
Values after ≈ are worked out from the molar mass of the structure shown. Values joined by “and” are separate entries in the source; they are usually repeats but may differ in a detail not shown here. Equal entries are not always repeated.

Legend:
[1] = target: T1, Palmitoleoyl-protein carboxylesterase NOTUM (Homo sapiens, UniProt Q6P988, C330S); assay: Inhibition of human Notum (81 to 451 Cys330Ser) using OPTS as substrate incubated for 40 mins by fluorescence based assay
[2] = target: T1, Palmitoleoyl-protein carboxylesterase NOTUM; assay: Inhibition of Notum (81 to 451 Cys330Ser) in HEK293T cells expressing TCF-LEF assessed as activation of Wnt signaling using WNT3A as substrate incubated for […] by Steady-Glo luciferase assay; type: cell-based
[3] = Apparent permeability in MDCKII-MDR1 cells assessed as compound recovery at 10 uM incubated upto 120 mins by LC-MS/MS analysis; type: ADME, cell-based, Canis lupus familiaris; settings: dog, MDCK-MDR1, read-out: Activity
[4] = Intrinsic clearance in mouse liver microsome at 1 uM incubated upto 60 mins in presence of NADPH by LC-MS/MS analysis; type: ADME; settings: liver microsomes, read-out: CLH
[5] = Aqueous solubility of the compound at pH 7.4 in pION buffer at 500uM incubated for 18 hrs by spectrophotometry analysis; type: physicochemical
[6] = Stability in mouse liver microsome assessed as half life at 1 uM incubated upto 60 mins in presence of NADPH by LC-MS/MS analysis; type: ADME; settings: liver microsomes
[7] = C0 in C57BL/6J mouse at 0.4 mg/kg, iv measured at 0.08 to 24 hrs by LC-MS/MS analysis; type: ADME, organism-based; settings: in vivo, time 0.08-24 hrs
[8] = Drug concentration in C57BL/6J mouse brain at 0.4 mg/kg, iv measured at 4 hrs by LC-MS/MS analysis; type: ADME, organism-based; settings: read-out: Drug uptake
[9] = AUC (infinity) in C57BL/6J mouse at 0.4 mg/kg, iv measured at 0.08 to 24 hrs by LC-MS/MS analysis; type: ADME, organism-based; set-up: route intravenous, time upper 24 hrs, time lower 0.08 hrs, dose 0.4 mg/kg; settings: in vivo
HEK-293T [10] = assay: Cytotoxicity against HEK293T cells expressing TCF-LEF assessed as effect on total cell number by GFP based assay; type: toxicity; settings: human
[11] = AUC (all) in C57BL/6J mouse at 0.4 mg/kg, iv measured at 0.08 to 24 hrs by LC-MS/MS analysis; type: ADME, organism-based; set-up: route intravenous, time 0.08-24 hrs, dose 0.4 mg/kg; settings: in vivo
[12] = Volume of distribution at steady state in C57BL/6J mouse at 0.4 mg/kg, iv measured at 0.08 to 24 hrs by LC-MS/MS analysis; type: ADME, organism-based; settings: in vivo, time 0.08-24 hrs, read-out: Vdss
HEK-293T [13] = assay: Cytotoxicity against HEK293T cells expressing TCF-LEF assessed as adverse effects on cell health by Cell Titre Glo assay; type: toxicity, cell-based; settings: human
[14] = Half life in C57BL/6J mouse at 0.4 mg/kg, iv measured at 0.08 to 24 hrs by LC-MS/MS analysis; type: ADME, organism-based; settings: in vivo, time 0.08-24 hrs
[15] = Drug concentration in C57BL/6J mouse brain at 0.4 mg/kg, iv measured at 1 hr by LC-MS/MS analysis; type: ADME, organism-based; settings: read-out: Drug uptake
[16] = Clearance in C57BL/6J mouse at 0.4 mg/kg, iv measured at 0.08 to 24 hrs by LC-MS/MS analysis; type: ADME, organism-based; settings: in vivo, time 0.08-24 hrs
[17] = Plasma protein binding in CD-1 mouse assessed as unbound fraction at 2 uM by Equilibrium dialysis method; type: ADME, cell-free
[18] = Apparent permeability from apical to basolateral side in dog MDCKII-MDR1 cells at 10 uM incubated upto 120 mins by LC-MS/MS analysis; type: ADME, cell-based, Canis lupus familiaris; settings: MDCK-MDR1
[19] = Apparent permeability from basolateral to apical side in dog MDCKII-MDR1 cells at 10 uM incubated upto 120 mins by LC-MS/MS analysis; type: ADME, cell-based, Canis lupus familiaris; settings: MDCK-MDR1
[20] = Acidic dissociation constant, pKa of the compound at pH 7.4; type: physicochemical
[21] = Plasma protein binding in CD-1 mouse at 2 uM by Equilibrium dialysis method; type: ADME, cell-free; settings: read-out: PPB (converted)

| Compound | IC50 [1] | EC50 [2] | other results |
| --- | --- | --- | --- |
| Cc1ccc(C2=N/C(=C/c3cccs3)C(=O)O2)cc1C | 24 nM | – | – |
| Cc1ccccc1COc1nn2c(=O)c(C)nnc2s1 | 320 nM and 1600 nM | – | – |
| O=c1[nH]nc2ccc(Sc3ncccn3)nn12 | > 10000 nM | – | – |
| COc1ccc(/C=C2/N=C(c3cccc(Cl)c3Cl)OC2=O)c(OC)c1 | > 10000 nM | – | – |
| Cc1ccccc1Sc1ccc2n[nH]c(=O)n2n1 | 50 nM | 300 nM | – |
| O=c1[nH]nc2ccc(Sc3ccccc3F)nn12 | 87 nM | 1100 nM | – |
| Cc1ccc(Sc2ccc3nn(C)c(=O)n3n2)cc1 | > 10000 nM | – | – |
| Cc1ccnc(Sc2ccc3n[nH]c(=O)n3n2)c1 | 2700 nM | – | – |
| Cc1ccc(Nc2ccc3n[nH]c(=O)n3n2)cc1 | 690 nM | – | – |
| O=c1[nH]nc2ccc(Sc3ccncn3)nn12 | > 10000 nM | – | – |
| O=c1[nH]nc2ccc(Sc3ccc(F)cc3)nn12 | 94 nM | 540 nM | – |
| CSc1cccc(Sc2ccc3n[nH]c(=O)n3n2)c1 | 24 nM | 380 nM | – |
| O=C1OC(c2ccc(Cl)cc2Cl)=N/C1=C/c1ccco1 | 48 nM | – | – |
| O=c1[nH]nc2ccc(Sc3ccccc3C(F)(F)F)nn12 | 89 nM | 930 nM | – |
| Cc1ccc(Sc2nn3c(=O)[nH]nc3c(C)c2C)cc1 | > 10000 nM | – | – |
| CC(C)Oc1cccc(Sc2ccc3n[nH]c(=O)n3n2)c1 | 25 nM | 260 nM | – |
| Cc1ccc(N(C)c2ccc3n[nH]c(=O)n3n2)cc1 | 990 nM | – | – |
| Cc1ccc(Sc2ccc3n[nH]c(=O)n3n2)cc1 | 27 nM | 86 nM | fraction unbound at 2 µM [17]: 0.011; Papp A→B at 2 h, 10 µM [18]: 52 ×10⁻⁶ cm/s; C0 [7]: 2620 ng/mL; concentration at 4 h [8]: < 5 ng/mL; Papp B→A at 2 h, 10 µM [19]: 43 ×10⁻⁶ cm/s; pKa [20]: 7.9; AUC(0-inf) [9]: 2350 ng·h/mL; Activity (HEK-293T [10]): Non-Toxic; AUC [11]: 2330 ng·h/mL; Vd [12]: 0.1 L/kg; Activity (HEK-293T [13]): Non-Toxic; half-life [14]: 36 min; microsomal CLint at 1 µM [4]: 21 µL/min/mg; solubility at 18 h, 500 µM [5]: 32 µg/mL and 120 µM; fraction unbound at 2 µM [21]: 0.012; concentration at 1 h [15]: < 5 ng/mL; clearance [16]: 2.8 mL/min/kg |
| Cc1cccc(Sc2ccc3n[nH]c(=O)n3n2)n1 | 650 nM | > 10000 nM | – |

| Compound | IC50 [1] | EC50 [2] | other results |
| --- | --- | --- | --- |
| O=C1OC(c2cccc3ccccc23)=N/C1=C/c1ccco1 | 100 nM | – | – |
| Cc1ccc(C2=N/C(=C/c3ccccc3)C(=O)O2)cc1C | 200 nM | – | – |
| Cc1ccc(Cc2ccc3n[nH]c(=O)n3n2)cc1 | 240 nM | – | – |
| O=c1[nH]nc2ccc(Sc3ccccc3)nn12 | 150 nM | – | – |
| Cc1ccc([S+]([O-])c2ccc3n[nH]c(=O)n3n2)cc1 (stereo unspecified) | > 10000 nM | – | – |
| O=c1[nH]nc2ccc(Sc3cccc(F)c3F)nn12 | 63 nM | – | – |
| Cc1ccc(Sc2ccc3n[nH]c(=O)n3n2)c(C)c1 | 27 nM | 300 nM | – |
| Cc1ccc(Sc2cc(C)c3n[nH]c(=O)n3n2)cc1 | 70 nM | – | – |
| O=C1OC(c2cccc(Cl)c2Cl)=N/C1=C/c1cccs1 | 54 nM | – | – |
| O=c1[nH]nc2ccc(Sc3ccccc3Cl)nn12 | 30 nM | 720 nM | – |
| COC(=O)CCC(=O)N1CCc2ccccc21 | 90 nM | – | – |
| O=c1[nH]nc2ccc(Sc3cccc(C(F)(F)F)n3)nn12 | 410 nM | > 10000 nM | – |
| Cc1ccc(Oc2ccc3n[nH]c(=O)n3n2)cc1 | 3100 nM | – | – |
| Cc1cc(C)cc(Sc2ccc3n[nH]c(=O)n3n2)c1 | 47 nM | – | – |
| O=c1[nH]nc2ccc(Sc3ccc(F)c(F)c3)nn12 | 120 nM | 1100 nM | – |
| Cc1ccc(Sc2ccc3n[nH]c(=O)n3n2)nc1 | 3600 nM | – | – |
| Cc1ccc(S(=O)(=O)c2ccc3n[nH]c(=O)n3n2)cc1 | > 10000 nM | – | – |
| O=c1[nH]nc2ccc(Sc3cccc(F)c3)nn12 | 30 nM | 260 nM | – |
| O=c1[nH]nc2ccc(Sc3ccc(C(F)(F)F)cc3)nn12 | 28 nM | 300 nM | – |

Further molecules by falling IC50 [1], results first:

| IC50 [1] | EC50 [2] | Compound | other results |
| --- | --- | --- | --- |
| 22 nM | – | Cc1ccc(/C=C2/N=C(c3cccc(Cl)c3Cl)OC2=O)o1 | – |
| 21 nM | 310 nM | O=c1[nH]nc2ccc(Sc3ccc(Cl)cc3)nn12 | – |
| 20 nM | 380 nM | O=c1[nH]nc2ccc(Sc3ccc(Cl)cc3Cl)nn12 | – |
| 20 nM | 150 nM | CCOc1cccc(Sc2ccc3n[nH]c(=O)n3n2)c1 | – |
| 17 nM | – | Cc1ccc(/C=C2\N=C(c3ccc(C)c(C)c3)OC2=O)o1 | recovery at 2 h, 10 µM [3]: < 25%; microsomal CLint at 1 µM [4]: 1.9 µL/min/mg; solubility at 18 h, 500 µM [5]: 0.31 µg/mL (≈ 1.1 µM); half-life at 1 µM [6]: 360 min |
| 17 nM | 190 nM | O=c1[nH]nc2ccc(Sc3cccc(C(F)(F)F)c3)nn12 | – |
| 15 nM | 140 nM | COc1cccc(Sc2ccc3n[nH]c(=O)n3n2)c1 | – |
| 14 nM | – | O=C1OC(c2ccc(Cl)cc2Cl)=N/C1=C\c1ccco1 | – |
| 14 nM | – | Cc1cccc(Sc2ccc3n[nH]c(=O)n3n2)c1C | – |
| 13 nM | 150 nM | O=c1[nH]nc2ccc(Sc3cccc(Cl)c3Cl)nn12 | – |
| 12 nM | – | O=C1OC(c2cccc(Cl)c2Cl)=N/C1=C/c1ccco1 | – |
| 9 nM | 240 nM | Cc1cccc(Sc2ccc3n[nH]c(=O)n3n2)c1 | – |
| 8.5 nM | – | Cc1ccc(/C=C2/N=C(c3ccc(C)c(C)c3)OC2=O)o1 | – |
| 7 nM | 130 nM | Cc1ccc(Sc2ccc3n[nH]c(=O)n3n2)cc1C | – |
| 6 nM | 88 nM | O=c1[nH]nc2ccc(Sc3cccc(Cl)c3)nn12 | C0 [7]: 1750 ng/mL; concentration at 4 h [8]: < 5 ng/mL; AUC(0-inf) [9]: 300 ng·h/mL; Activity (HEK-293T [10]): Non-Toxic; AUC [11]: 300 ng·h/mL; Vd [12]: 0.3 L/kg; Activity (HEK-293T [13]): Non-Toxic; half-life [14]: 18 min; concentration at 1 h [15]: < 5 ng/mL; clearance [16]: 22.2 mL/min/kg |
| 5 nM | 110 nM | O=c1[nH]nc2ccc(Sc3ccc(Cl)c(Cl)c3)nn12 | C0 [7]: 1580 ng/mL; concentration at 4 h [8]: < 5 ng/mL; AUC(0-inf) [9]: 370 ng·h/mL; Activity (HEK-293T [10]): Non-Toxic; AUC [11]: 360 ng·h/mL; Vd [12]: 0.7 L/kg; Activity (HEK-293T [13]): Non-Toxic; half-life [14]: 42 min; concentration at 1 h [15]: < 5 ng/mL; clearance [16]: 17.8 mL/min/kg |
| 4 nM | 34 nM | O=c1[nH]nc2ccc(Sc3cccc(OC(F)(F)F)c3)nn12 | C0 [7]: 1900 ng/mL; concentration at 4 h [8]: < 5 ng/mL; AUC(0-inf) [9]: 270 ng·h/mL; Activity (HEK-293T [10]): Non-Toxic; AUC [11]: 270 ng·h/mL; Vd [12]: 0.2 L/kg; Activity (HEK-293T [13]): Non-Toxic; half-life [14]: 6 min; concentration at 1 h [15]: < 5 ng/mL; clearance [16]: 24.8 mL/min/kg |
